Reference: patent US7579356B2, “Thia-tetraazaacenaphthylene kinase inhibitors” (Janssen Pharmaceutica NV, priority 2005, dated 2009)
Several values for one entry are separate records, joined by “and”; a condition that tells them apart may be missing. Equal entries are not always repeated.

Assays:
c-Src kinase (human) = target: T1, c-Src kinase (human) (Homo sapiens, UniProt P12931); experiment: c-Src Kinase Assay; assay type: biochemical; conditions: for c-Src % Inhibition / inhibition at 2 µM: test concentration of 2 μM, multiple values are separate assay results; for c-Src % Inhibition: 2 µM; for IC50: read-out: c-Src IC50 (in parentheses)
T1 construct: purchased Upstate Biotechnology, Lake Placid, N.Y
T1 sequence (P12931 whole entry): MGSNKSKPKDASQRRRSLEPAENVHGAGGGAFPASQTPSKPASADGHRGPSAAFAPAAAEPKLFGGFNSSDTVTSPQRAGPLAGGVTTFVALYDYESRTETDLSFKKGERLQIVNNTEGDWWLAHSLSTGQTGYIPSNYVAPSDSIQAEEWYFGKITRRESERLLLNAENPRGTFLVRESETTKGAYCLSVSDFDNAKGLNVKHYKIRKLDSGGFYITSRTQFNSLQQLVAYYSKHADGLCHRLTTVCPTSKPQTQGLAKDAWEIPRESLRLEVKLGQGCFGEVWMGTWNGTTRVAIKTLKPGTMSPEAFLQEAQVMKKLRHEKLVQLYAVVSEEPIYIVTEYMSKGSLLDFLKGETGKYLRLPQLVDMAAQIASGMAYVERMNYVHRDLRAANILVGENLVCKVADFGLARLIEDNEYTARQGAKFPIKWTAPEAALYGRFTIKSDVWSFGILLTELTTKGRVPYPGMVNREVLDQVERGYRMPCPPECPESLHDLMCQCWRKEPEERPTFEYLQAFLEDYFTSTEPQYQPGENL
Method in brief: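 Inhibition was read as 33P incorporation, counted on P30 filtermats, after a 40 min, 30° C reaction. Human c-Src acted on 100 μM Cdc2 peptide with 5 μM ATP (final), pH 7.0 MOPS/MgCl2. Values are percent inhibition at 2 μM compound, or IC50 where determined.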

Lyn kinase (human) = target: T2, Lyn kinase (human) (Homo sapiens, UniProt P07948); experiment: Lyn Kinase Assay; assay type: biochemical; conditions: test concentration of 2 μM; for % Inhibition (Lyn): 2 µM
T2 construct: purchased Upstate Biotechnology, Lake Placid, N.Y
T2 sequence (P07948 whole entry): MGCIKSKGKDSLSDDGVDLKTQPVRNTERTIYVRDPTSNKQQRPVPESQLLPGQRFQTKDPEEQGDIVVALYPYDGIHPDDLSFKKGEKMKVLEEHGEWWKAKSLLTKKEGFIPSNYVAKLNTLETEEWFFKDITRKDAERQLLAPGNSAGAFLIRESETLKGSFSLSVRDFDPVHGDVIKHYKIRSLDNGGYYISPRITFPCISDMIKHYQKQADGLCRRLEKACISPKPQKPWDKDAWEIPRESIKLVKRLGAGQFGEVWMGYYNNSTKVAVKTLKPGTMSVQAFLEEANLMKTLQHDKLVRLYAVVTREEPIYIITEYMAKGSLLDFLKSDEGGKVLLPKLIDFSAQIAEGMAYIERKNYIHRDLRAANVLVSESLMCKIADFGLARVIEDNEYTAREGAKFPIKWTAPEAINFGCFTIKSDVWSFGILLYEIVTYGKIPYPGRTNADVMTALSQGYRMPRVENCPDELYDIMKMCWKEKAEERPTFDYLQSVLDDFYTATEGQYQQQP
Method in brief: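 Radiometric filter-binding assay with recombinant human Lyn, poly(Glu,Tyr) substrate (0.1 mg/mL final), 5 μM ATP plus γ-33P-ATP in MOPS pH 7.5/Mg acetate buffer; 40 min at 30 °C, stopped with phosphoric acid, counted by scintillation. Reported as percent inhibition at 2 μM, with IC50 (μM) where determined.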

A375 malignant melanoma = experiment: Cell Proliferation Inhibition Assay, A375 (14C-thymidine); assay type: cell-based; conditions: Homo sapiens, A-375
Source text: (§1) Cell Proliferation Inhibition Assay
(§2) The ability of a test compound to inhibit unregulated cell proliferation may be determined by measuring incorporation of ^14C-labelled thymidine into newly synthesized DNA within cell lines derived from carcinomas originating from several tissues. Accordingly, the effect of a test compound on proliferation of cells with a variety of phenotypes may be determined.
(§3) Carcinoma cell lines used include the HeLa cervical adenocarcinoma from the American Type Culture Collection (ATCC Cat. #CCL2), A375 malignant melanoma (ATCC Cat. #CRL-1619), HCT-116 colon carcinoma (ATCC Cat. #CCL-247), SKBR3 breast carcinoma (ATCC Cat. #HTB-30) and BT474 breast carcinoma (ATCC Cat. #HTB-20).
(§4) The carcinoma cells were trypsinized and counted. The cells (3000-8000 count) were added to each well of a 96-well CytoStar tissue culture treated scintillating microplate (Amersham #RPNQ0160) in complete medium (100 μL) and the plate was then incubated in complete medium for 24 hrs at 37° C. in an inert atmosphere containing 5% CO2.
(§5) Test compound (1 μL) in 100% DMSO was added to the plate test-wells with DMSO only added to control-wells. The plate was incubated in complete medium for a second 24 hr period at 37° C. in an atmosphere containing 5% CO2.
(§6) An aliquot of a solution of Methyl ^14C-thymidine (56 mC/mmol) (NEN #NEC568 or AMersham #CFA532) and complete medium (20 uL to provide 0.2 μCl/well) was then added to each well and the plate was incubated for a third 24 hr period at 37° C. in an atmosphere containing 5% CO2.
(§7) The plate contents were then discarded, the plate washed twice with PBS (200 μL) and then PBS (200 μL) was added to each well. The plate was sealed and the degree of methyl ^14C-thymidine incorporation was quantified on a Packard Top Count.
(§8) Cell proliferation of the Hela cell line was measured using the ATP-Lite method as described in the ATP Lite Kit (Perkin-Elmer Kit Number 6106941) or the C^14 method as described above. Cell proliferation of the other cell lines was measured using the C^14 method.

HCT-116 colon carcinoma = experiment: Cell Proliferation Inhibition Assay, HCT-116 (14C-thymidine); assay type: cell-based; conditions: Homo sapiens, HCT-116 cell proliferation
Source text: as §1, §2, §3, §4, §5, §6, §7, §8

## CCOC(=O)c1sc2ncnc3c2c1NC(=O)N3c1ccc(C)c(Br)c1 [Cpd 102, 5-(3-bromo-4-methyl-phenyl)-4-oxo-4,5-dihydro-3H-1-thia-3,5,6,8-tetraaza-acenaphthylene-2-carboxylic acid ethyl ester]
c-Src kinase (human)
  c-Src % Inhibition: 3% and 12%
Lyn kinase (human)
  inhibition at 2 µM: 8%
  % Inhibition (Lyn): 13%
A375 malignant melanoma
  IC50: 100 µM
HCT-116 colon carcinoma
  IC50: 100 µM

## Cc1ccc(N2C(=O)Nc3c(C(=O)NC4CCN(C)CC4)sc4ncnc2c34)cc1Br [Cpd 116, 5-(3-bromo-4-methyl-phenyl)-4-oxo-4,5-dihydro-3H-1-thia-3,5,6,8-tetraaza-acenaphthylene-2-carboxylic acid (1-methyl-piperidin-4-yl)-amide]
c-Src kinase (human)
  inhibition at 2 µM: -7%
Lyn kinase (human)
  inhibition at 2 µM: -2%
A375 malignant melanoma
  IC50: 10 µM
HCT-116 colon carcinoma
  IC50: 10 µM

## Cc1ccc(Br)cc1N1C(=O)Nc2c(C(=O)NC3CCN(C)CC3)sc3ncnc1c23 [Cpd 117, 5-(5-bromo-2-methyl-phenyl)-4-oxo-4,5-dihydro-3H-1-thia-3,5,6,8-tetraaza-acenaphthylene-2-carboxylic acid (1-methyl-piperidin-4-yl)-amide]
c-Src kinase (human)
  inhibition at 2 µM: 25%
Lyn kinase (human)
  inhibition at 2 µM: 12%
A375 malignant melanoma
  IC50: 100 µM
HCT-116 colon carcinoma
  IC50: 100 µM

## CCOC(=O)c1sc2ncnc3c2c1NC(=O)N3c1ccc(Oc2ccc(F)cc2)cc1 [Cpd 101, 5-[4-(4-fluoro-phenoxy)-phenyl]-4-oxo-4,5-dihydro-3H-1-thia-3,5,6,8-tetraaza-acenaphthylene-2-carboxylic acid ethyl ester]
Lyn kinase (human)
  inhibition at 2 µM: 3%
  % Inhibition (Lyn): 6%
A375 malignant melanoma
  IC50: 100 µM
HCT-116 colon carcinoma
  IC50: 100 µM

## O=C(O)c1sc2ncnc3c2c1NC(=O)N3c1ccc(OCc2ccccn2)c(Cl)c1 [Cpd 38, 5-[3-chloro-4-(pyridin-2-ylmethoxy)-phenyl]-4-oxo-4,5-dihydro-3H-1-thia-3,5,6,8-tetraaza-acenaphthylene-2-carboxylic acid]
c-Src kinase (human)
  inhibition at 2 µM: 7%
Lyn kinase (human)
  inhibition at 2 µM: -16%
A375 malignant melanoma
  IC50: 100 µM
HCT-116 colon carcinoma
  IC50: 100 µM

## O=C(Nc1ccc(CN2CCOCC2)cc1)c1sc2ncnc3c2c1NC(=O)N3c1ccc(Oc2ccc(F)cc2)cc1 [Cpd 110, 5-[4-(4-fluoro-phenoxy)-phenyl]-4-oxo-4,5-dihydro-3H-1-thia-3,5,6,8-tetraaza-acenaphthylene-2-carboxylic acid (4-morpholin-4-ylmethyl-phenyl)-amide]
c-Src kinase (human)
  inhibition at 2 µM: 16%
Lyn kinase (human)
  inhibition at 2 µM: 21%
A375 malignant melanoma
  IC50: 100 µM
HCT-116 colon carcinoma
  IC50: 10 µM

## CC(C)(C)OC(=O)N1CCC(NC(=O)c2sc3ncnc4c3c2NC(=O)N4c2ccc3c(ccn3Cc3cccc(F)c3)c2)CC1 [Cpd 91, 4-({5-[1-(3-fluoro-benzyl)-1H-indol-5-yl]-4-oxo-4,5-dihydro-3H-1-thia-3,5,6,8-tetraaza-acenaphthylene-2-carbonyl}-amino)-piperidine-1-carboxylic acid tert-butyl ester]
c-Src kinase (human)
  inhibition at 2 µM: -37%
Lyn kinase (human)
  inhibition at 2 µM: 7%
A375 malignant melanoma
  IC50: 10 µM
HCT-116 colon carcinoma
  IC50: 10 µM

## CCOC(=O)c1sc2ncnc3c2c1NC(=O)N3c1ccc2c(cnn2Cc2cccc(F)c2)c1 [Cpd 78, 5-[1-(3-fluoro-benzyl)-1H-indazol-5-yl]-4-oxo-4,5-dihydro-3H-1-thia-3,5,6,8-tetraaza-acenaphthylene-2-carboxylic acid ethyl ester]
c-Src kinase (human)
  IC50: > 200 µM
A375 malignant melanoma
  IC50: 100 µM
HCT-116 colon carcinoma
  IC50: 100 µM

## O=C(Nc1ccc(CN2CCCCC2)cc1)c1sc2ncnc3c2c1NC(=O)N3c1ccc2c(cnn2Cc2cccc(F)c2)c1 [Cpd 80, 5-[1-(3-fluoro-benzyl)-1H-indazol-5-yl]-4-oxo-4,5-dihydro-3H-1-thia-3,5,6,8-tetraaza-acenaphthylene-2-carboxylic acid (4-piperidin-1-ylmethyl-phenyl)-amide]
c-Src kinase (human)
  IC50: > 200 µM
A375 malignant melanoma
  IC50: 10.1 µM
HCT-116 colon carcinoma
  IC50: 14 µM

## CN1CCC(NC(=O)c2sc3ncnc4c3c2NC(=O)N4c2ccc3c(ccn3Cc3cccc(F)c3)c2)CC1 [Cpd 92, 5-[1-(3-fluoro-benzyl)-1H-indol-5-yl]-4-oxo-4,5-dihydro-3H-1-thia-3,5,6,8-tetraaza-acenaphthylene-2-carboxylic acid (1-methyl-piperidin-4-yl)-amide]
c-Src kinase (human)
  IC50: 0.431 µM
  inhibition at 2 µM: 65%
  c-Src % Inhibition: 45%
A375 malignant melanoma
  IC50: 4.89 µM
HCT-116 colon carcinoma
  IC50: 4.36 µM

## O=C(Nc1ccc(CN2CCOCC2)cc1)c1sc2ncnc3c2c1NC(=O)N3c1ccc(OCc2ccccn2)c(Cl)c1 [Cpd 52, 5-[3-chloro-4-(pyridin-2-ylmethoxy)-phenyl]-4-oxo-4,5-dihydro-3H-1-thia-3,5,6,8-tetraaza-acenaphthylene-2-carboxylic acid (4-morpholin-4-ylmethyl-phenyl)-amide]
c-Src kinase (human)
  inhibition at 2 µM: 1%
Lyn kinase (human)
  inhibition at 2 µM: 16.2%
A375 malignant melanoma
  IC50: 100 µM
HCT-116 colon carcinoma
  IC50: 100 µM

## O=C(Nc1ccc(N2CCOCC2)cc1)c1sc2ncnc3c2c1NC(=O)N3c1ccc2c(ccn2Cc2cccc(F)c2)c1 [Cpd 94, 5-[1-(3-fluoro-benzyl)-1H-indol-5-yl]-4-oxo-4,5-dihydro-3H-1-thia-3,5,6,8-tetraaza-acenaphthylene-2-carboxylic acid (4-morpholin-4-yl-phenyl)-amide]
c-Src kinase (human)
  inhibition at 2 µM: -39%
Lyn kinase (human)
  inhibition at 2 µM: 3%
A375 malignant melanoma
  IC50: 100 µM
HCT-116 colon carcinoma
  IC50: 100 µM

## CN1CCC(NC(=O)c2sc3ncnc4c3c2NC(=O)N4c2ccc(Oc3ccc(F)cc3)cc2)CC1 [Cpd 118, 5-[4-(4-fluoro-phenoxy)-phenyl]-4-oxo-4,5-dihydro-3H-1-thia-3,5,6,8-tetraaza-acenaphthylene-2-carboxylic acid (1-methyl-piperidin-4-yl)-amide]
c-Src kinase (human)
  inhibition at 2 µM: 15%
Lyn kinase (human)
  inhibition at 2 µM: 12%
A375 malignant melanoma
  IC50: 10 µM
HCT-116 colon carcinoma
  IC50: 10 µM

## O=C(NCCN1CCOCC1)c1sc2ncnc3c2c1NC(=O)N3c1ccc2c(ccn2Cc2cccc(F)c2)c1 [Cpd 93, 5-[1-(3-fluoro-benzyl)-1H-indol-5-yl]-4-oxo-4,5-dihydro-3H-1-thia-3,5,6,8-tetraaza-acenaphthylene-2-carboxylic acid (2-morpholin-4-yl-ethyl)-amide]
c-Src kinase (human)
  inhibition at 2 µM: 41%
Lyn kinase (human)
  inhibition at 2 µM: 16%
A375 malignant melanoma
  IC50: 10 µM
HCT-116 colon carcinoma
  IC50: 10 µM

## O=C(Nc1ccc(CN2CCOCC2)cc1)c1sc2ncnc3c2c1NC(=O)N3c1cccc(Br)c1 [Cpd 36, 5-(3-bromo-phenyl)-4-oxo-4,5-dihydro-3H-1-thia-3,5,6,8-tetraaza-acenaphthylene-2-carboxylic acid (4-morpholin-4-ylmethyl-phenyl)-amide]
c-Src kinase (human)
  IC50: > 20 µM
A375 malignant melanoma
  IC50: 10 µM
HCT-116 colon carcinoma
  IC50: 67.9 µM

## O=C(O)c1sc2ncnc3c2c1NC(=O)N3c1ccc2c(ccn2Cc2cccc(F)c2)c1 [Cpd 77, 5-[1-(3-fluoro-benzyl)-1H-indol-5-yl]-4-oxo-4,5-dihydro-3H-1-thia-3,5,6,8-tetraaza-acenaphthylene-2-carboxylic acid]
c-Src kinase (human)
  IC50: > 200 µM
  inhibition at 2 µM: 44%
A375 malignant melanoma
  IC50: 100 µM
HCT-116 colon carcinoma
  IC50: 100 µM

## COc1ccc(NC(=O)c2sc3ncnc4c3c2NC(=O)N4c2ccc(OCc3ccccn3)c(Cl)c2)cc1OC [Cpd 48, 5-[3-chloro-4-(pyridin-2-ylmethoxy)-phenyl]-4-oxo-4,5-dihydro-3H-1-thia-3,5,6,8-tetraaza-acenaphthylene-2-carboxylic acid (3,4-dimethoxy-phenyl)-amide]
c-Src kinase (human)
  inhibition at 2 µM: 7%
Lyn kinase (human)
  inhibition at 2 µM: 14%
A375 malignant melanoma
  IC50: 17.2 µM
HCT-116 colon carcinoma
  IC50: 30.4 µM

## CCOC(=O)c1sc2ncnc3c2c1NC(=O)N3c1cc(Br)ccc1C [Cpd 103, 5-(5-bromo-2-methyl-phenyl)-4-oxo-4,5-dihydro-3H-1-thia-3,5,6,8-tetraaza-acenaphthylene-2-carboxylic acid ethyl ester]
c-Src kinase (human)
  inhibition at 2 µM: 14%
  c-Src % Inhibition: 18%
A375 malignant melanoma
  IC50: 100 µM
HCT-116 colon carcinoma
  IC50: 100 µM
